Reference: patent US20150018271A1, “HSP60 DERIVED PEPTIDES AND PEPTIDE ANALOGS FOR SUPPRESSION AND TREATMENT OF NON-AUTOIMMUNE DIABETES” (Yeda Research and Development Co. Ltd., priority 2012, published 2015)
Ends that are not written are not given here.

How the values were obtained:
[1] = system: male C57BL/N mice on high fat (60%) diet; details: any of the DiaPep277 treatments (100-500 μg in intralipid SC or 100 μg in PBS IP), about 16 weeks, FIG. 1
Text: Mice genetically prone to T2D (dp/dp or ob/ob strains, resistant to leptin), and/or healthy C57BL/6 mice induced to develop T2D by a high fat diet are used in vivo to assess the activity of hsp60 peptides and analogs in protecting against or treatment of T2D. […] In the fat diet model, the diet (for example TD.0811 of Harlan™, or D12492 of Research Diets Inc. containing 21% and 34.9% fat respectively) is initiated after weaning and the mice express T2D by 10 weeks of age.
In a typical trial, groups of T2D mice (10 mice per group) are treated early in the course of the disease (about 7-10 weeks of age). […]
Treatment with DiaPep277 or other hsp60 peptides or analogs, is performed once or several times a week with doses of 100-500 micrograms injected subcutaneously (with adjuvant such as intralipid) or IP, IM or IV (without adjuvant). Glucose tolerance, fasting glucose and fasting insulin levels are measured 1-2 months after onset of treatment.
In one specific in-vivo trial, 70 male C57BL/N mice were weighed, measured for blood glucose levels and divided into seven groups, 10 mice/group as following: […]
Animals of groups 2-7 were fed with 60% fat diet of from age of 5 weeks until termination of the trial. […] After about 16 weeks the trial was terminated and Hemoglobin A1C and C-peptide levels were measured using methods known in the art.

[2] = system: NOD mice; details: cited from earlier work

| Substance | animal appetite and weight [1] | gamma interferon secretion ([2]; after treatment) | p277-specific IL-4 and IL-10 secretion ([2]; after treatment) | p277-specific IgG1 antibodies ([2]; after treatment) | T-cell reactivity to beta cell antigens ([2]; subcutaneous administration) | development of diabetes ([2]; subcutaneous administration) |
| --- | --- | --- | --- | --- | --- | --- |
| VLGGGVALLRVIPALDSLTPANED [DiaPep277] | did not change | – | – | – | – | – |
| p277: specific peptide of human hsp60, one of the immunodominant epitopes in autoimmune diabetes; native cysteines at positions 6 and 11 (VLGGGCALLRCIPALDSLTPANED; p277 peptide; UniProt P10809 437-460, looked up, fragment) | – | decrease | increase | induced | down-regulated | prevented the development of diabetes |
